Experiment [1] has as its system multidrug-resistant Pseudomonas aeruginosa. Put plainly: Growth suppression of multidrug-resistant Pseudomonas aeruginosa clinical isolates (Test Example 7). The class given is cell-based. Particulars: MEPM 2 μg/ml alone, compound 8 20 μM (15.5 μg/ml) alone, Combination = both, 3 wells. The procedure:
The effect of NODA-GA-conjugated doripenem (compound 8) on the susceptibility of a Pseudomonas aeruginosa clinical isolate to a carbapenem antibacterial agent was evaluated by the following method. The Pseudomonas aeruginosa clinical isolate was cultured overnight with shaking in LB medium. The bacterial solution was diluted to 1/1000 with LB medium, used as a test bacterial solution, and then seeded in a 96-well plate. Meropenem (Wako Pure Chemical Industries, Ltd.) was added to this bacterial solution in such a manner that the concentration was 2 μg/ml. The effect of NODA-GA-doripenem alone was also examined. The bacteria were cultured in an incubator at 37° C. for one day, and the growth at that time was measured by turbidity (655 nm).
MEPM in Table 1 is meropenem (2 μg/ml) administered alone; NODA-GA-doripenem is compound 8 (20 μM; 15.5 μg/ml) administered alone; Combination means a combined use of meropenem (2 μg/ml) and compound 8 (20 μM; 15.5 μg/ml).

Experiment [2] has as its system Multidrug-resistant Pseudomonas aeruginosa strain MR4. In words: Growth inhibition of Pseudomonas aeruginosa strain MR4 (Test Example 8). The experiment is classed as cell-based. Particulars: after 24 hours, compared with doripenem. The procedure:
Multidrug-resistant Pseudomonas aeruginosa strain MR4 was cultured with doripenem or compound 8, and the bacterial load was assessed by turbidity after 24 hours. FIG. 18 depicts the results.

This is an account of results in US20240245783A1, “METALLO-BETA-LACTAMASE INHIBITOR” (priority 2021, published 2024).

Take `C[C@@H](O)[C@H]1C(=O)N2C(C(=O)O)=C(S[C@@H]3CN[C@H](CNS(=O)(=O)NC(=O)CCC(C(=O)O)N4CCN(CC(=O)O)CCN(CC(=O)O)CC4)C3)[C@H](C)[C@H]12` (stereo partly drawn) [compound 8, NODA-GA-conjugated doripenem]: the “suppression of bacterial growth” value is “X (x indicates that the number of wells in which suppression of bacterial growth was confirmed was 1 or less)” in experiment [1] (strain 808#1); “X (x indicates that the number of wells in which suppression of bacterial growth was confirmed was 1 or less)” in experiment [1] (strain 808#2); “◯ (◯ indicates that bacterial growth was suppressed in all 3 wells)” in experiment [1] (strain MR1); “◯ (◯ indicates that bacterial growth was suppressed in all 3 wells)” in experiment [1] (strain MR2); “Δ (Δ indicates that bacterial growth was suppressed in 2 wells out of 3 wells)” in experiment [1] (strain MR3); “Δ (Δ indicates that bacterial growth was suppressed in 2 wells out of 3 wells)” in experiment [1] (strain MR4). The “suppression of bacterial growth” value in experiment [1] (strain MR5) is “◯ (◯ indicates that bacterial growth was suppressed in all 3 wells)”; in experiment [1] (strain MR6), “Δ (Δ indicates that bacterial growth was suppressed in 2 wells out of 3 wells)”; in experiment [1] (strain MR7) it was “◯ (◯ indicates that bacterial growth was suppressed in all 3 wells)”; in experiment [1] (strain MR8), “X (x indicates that the number of wells in which suppression of bacterial growth was confirmed was 1 or less)”; in experiment [1] (strain MR9), “◯ (◯ indicates that bacterial growth was suppressed in all 3 wells)”; in experiment [1] (strain MR10), “Δ (Δ indicates that bacterial growth was suppressed in 2 wells out of 3 wells)”. The “suppression of bacterial growth” value in experiment [1] (strain MR11) is listed as “X (x indicates that the number of wells in which suppression of bacterial growth was confirmed was 1 or less)”; in experiment [1] (strain MR12) it was “X (x indicates that the number of wells in which suppression of bacterial growth was confirmed was 1 or less)”; in experiment [1] (strain MR13), “X (x indicates that the number of wells in which suppression of bacterial growth was confirmed was 1 or less)”; in experiment [1] (strain MR14), “Δ (Δ indicates that bacterial growth was suppressed in 2 wells out of 3 wells)”; in experiment [1] (strain MR15), “◯ (◯ indicates that bacterial growth was suppressed in all 3 wells)”; in experiment [1] (strain MR16), “X (x indicates that the number of wells in which suppression of bacterial growth was confirmed was 1 or less)”. Further, the “suppression of bacterial growth” value in experiment [1] (strain NM1) is “Δ (Δ indicates that bacterial growth was suppressed in 2 wells out of 3 wells)”; in experiment [1] (strain NM2), “Δ (Δ indicates that bacterial growth was suppressed in 2 wells out of 3 wells)”; in experiment [1] (strain NM3), “◯ (◯ indicates that bacterial growth was suppressed in all 3 wells)”; in experiment [1] (strain NM4), “◯ (◯ indicates that bacterial growth was suppressed in all 3 wells)”; in experiment [1] (strain NM5) it was “X (x indicates that the number of wells in which suppression of bacterial growth was confirmed was 1 or less)”. Moreover, the “anti-Pseudomonas aeruginosa effect (bacterial load by turbidity)” value in experiment [2] is “significantly improved compared to that of doripenem”.
